Experimental data reported in patent US9346761B2, “Arginine methyltransferase inhibitors and uses thereof” (Epizyme, Inc., priority 2013, dated 2016).

Experiments:
Full-length human PRMT6 = molecular target: T1, Full-length human PRMT6 (Homo sapiens, UniProt Q96LA8); experiment: PRMT6 biochemical assay (3H-SAM Flashplate, peptide substrate)
T1 construct: Flag-PRMT6-His was eluted with 200 ug/ml FLAG peptide in the same buffer; made in house; host or cells: HEK 293F cells (BacMam virus, pFastBacMam)
Summary of the method: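 Flag-PRMT6-His from baculovirus-infected cells, preincubated with compound 30 min at room temperature, then SAM/3H-SAM and biotinylated H4 36-50 peptide added; 20 mM Bicine pH 7.6, TCEP, BSG, Tween 20. Quenched with cold SAM, captured on streptavidin Flashplates; % inhibition from SAH/DMSO controls, 3- or 4-parameter IC50 fit.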

[1] = molecular target: T2, Full-length human PRMT1 isoform 1 (Homo sapiens, UniProt Q99873); experiment: PRMT1 biochemical assay (3H-SAM Flashplate, peptide substrate)
T2 construct: GST-tagged PRMT1; made in house; host or cells: High Five insect cells (baculovirus, pFastBacI)
Summary of the method: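 GST-tagged full-length PRMT1 from baculovirus-infected cells, preincubated 30 min at room temperature with compound in 20 mM Bicine pH 7.6, TCEP, BSG, Tween 20. Reaction started with 3H-SAM plus biotinylated peptide, stopped with 300 uM unlabelled SAM. Streptavidin Flashplate capture and scintillation counting; % inhibition curve-fitted for IC50.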

T1 sequence (Q96LA8 with tags, fused parts or gaps): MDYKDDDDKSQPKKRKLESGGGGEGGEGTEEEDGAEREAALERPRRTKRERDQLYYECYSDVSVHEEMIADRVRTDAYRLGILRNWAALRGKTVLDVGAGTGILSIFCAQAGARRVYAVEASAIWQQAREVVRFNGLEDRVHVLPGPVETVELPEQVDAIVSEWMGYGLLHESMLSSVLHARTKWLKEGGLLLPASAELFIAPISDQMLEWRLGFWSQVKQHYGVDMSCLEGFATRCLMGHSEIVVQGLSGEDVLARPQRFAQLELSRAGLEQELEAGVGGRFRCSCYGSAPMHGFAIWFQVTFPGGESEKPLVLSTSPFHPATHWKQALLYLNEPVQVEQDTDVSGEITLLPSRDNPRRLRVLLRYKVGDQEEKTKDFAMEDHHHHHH
T2 sequence (Q99873 with tags, fused parts or gaps): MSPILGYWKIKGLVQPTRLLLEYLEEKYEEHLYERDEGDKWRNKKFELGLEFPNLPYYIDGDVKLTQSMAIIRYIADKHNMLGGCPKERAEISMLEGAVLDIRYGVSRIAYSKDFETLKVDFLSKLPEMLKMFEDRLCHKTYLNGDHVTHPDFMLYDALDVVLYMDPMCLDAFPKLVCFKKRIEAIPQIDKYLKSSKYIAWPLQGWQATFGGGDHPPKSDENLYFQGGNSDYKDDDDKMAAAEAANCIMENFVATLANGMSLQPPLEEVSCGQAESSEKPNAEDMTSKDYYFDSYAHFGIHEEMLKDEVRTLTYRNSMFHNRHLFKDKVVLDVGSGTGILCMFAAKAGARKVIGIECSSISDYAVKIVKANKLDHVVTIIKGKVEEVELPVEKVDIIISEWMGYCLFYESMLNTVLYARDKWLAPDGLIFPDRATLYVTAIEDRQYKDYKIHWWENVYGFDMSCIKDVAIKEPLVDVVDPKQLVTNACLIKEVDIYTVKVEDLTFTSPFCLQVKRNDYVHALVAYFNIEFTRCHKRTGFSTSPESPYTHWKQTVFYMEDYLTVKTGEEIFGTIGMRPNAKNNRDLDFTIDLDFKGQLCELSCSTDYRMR

Row | SMILES | IC50 (Full-length human PRMT6) | IC50 [1]
1 | CNCCN(C)Cc1c[nH]nc1-c1ccc(Oc2ccccc2)cc1 [Compound 37] | < 100 nM | < 100 nM
2 | CNCCN(C)Cc1cnn(C2CCCC2)c1-c1ccc(OC(C)C)cc1 [Compound 255] | < 100 nM | < 100 nM
3 | CNCCN(C)Cc1c[nH]nc1-c1cccc(OC)c1 [Compound 24] | < 100 nM | < 100 nM
4 | CCn1ncc(CN(C)CCNC)c1-c1ccc(OC(C)C)cc1 [Compound 252] | 101 to 1000 nM | < 100 nM
5 | CN(CCNC1CC1)Cc1c[nH]nc1-c1ccc(C#N)cc1 [Compound 183] | 101 to 1000 nM | 1010 to 3000 nM
6 | CNCCN(C)Cc1cn(Cc2cccnc2)nc1-c1ccc(OC(C)C)cc1 [Compound 246] | 101 to 1000 nM | < 100 nM
7 | CNCCN(C)Cc1c[nH]nc1-c1ccc(Oc2ccccc2)c(C#N)c1 [Compound 221] | < 100 nM | < 100 nM
8 | CNCCN(C)Cc1cn(C)nc1-c1ccc(OC(C)C)c(Cl)c1 [Compound 206] | < 100 nM | < 100 nM
9 | CNCCN(C)Cc1c[nH]nc1-c1ccc(C(F)(F)F)cc1 [Compound 174] | < 100 nM | < 100 nM
10 | CNCCN(C)Cc1cn(C)nc1-c1ccc(OC(C)C)cc1 [Compound 243, N1-((3-(4-isopropoxyphenyl)-1-methyl-1H-pyrazol-4-yl)methyl)-N1,N2-dimethylethane-1,2-diamine] | 101 to 1000 nM | < 100 nM
11 | CCNC(=O)c1cccc(-c2n[nH]cc2CN(C)CCN)c1 [Compound 197] | < 100 nM | 101 to 1000 nM
12 | CNCCN(C)Cc1cn(Cc2ccccc2)nc1-c1ccc(OC(C)C)cc1 [Compound 217] | < 100 nM | < 100 nM
13 | CN(CCN)Cc1c[nH]nc1-c1ccc(Oc2ccccc2)c(F)c1 [Compound 224, N^1-((3-(3-fluoro-4-phenoxyphenyl)-1H-pyrazol-4-yl)methyl)-N^1-methylethane-1,2-diamine] | < 100 nM | < 100 nM
14 | CC(C)CC(=O)N1CCN(c2ccc(-c3n[nH]cc3CN(C)CCN)cc2)CC1 [Compound 180] | < 100 nM | 101 to 1000 nM
15 | CNCCN(C)Cc1c[nH]nc1-c1ccc(OC)cc1 [Compound 25] | < 100 nM | < 100 nM
16 | CNC(=O)c1cc(-c2n[nH]cc2CN(C)CCN)ccc1Oc1ccccc1 [Compound 227] | < 100 nM | < 100 nM
17 | CNCCN(C)Cc1c[nH]nc1-c1cccc([N+](=O)[O-])c1 [Compound 21] | < 100 nM | < 100 nM
18 | CNCCN(C)Cc1n[nH]cc1-c1ccc(OC(C)C)c(Cl)c1 [Compound 212] | < 100 nM | < 100 nM
19 | CNCCN(C)Cc1cn(CC(N)=O)nc1-c1ccc(OC(C)C)cc1 [Compound 251] | 1010 to 3000 nM | 101 to 1000 nM
20 | CC(C)CN1C(=O)COc2cc(-c3n[nH]cc3CN(C)CCN)ccc21 [Compound 193] | 101 to 1000 nM | < 100 nM
21 | Cc1cc(-c2n[nH]cc2CN(C)CCN)cc(C)c1OC(C)C [Compound 199, N^1-((3-(4-isopropoxy-3,5-dimethylphenyl)-1H-pyrazol-4-yl)methyl)-N^1-methylethane-1,2-diamine] | 101 to 1000 nM | < 100 nM
22 | CN(CCN)Cc1c[nH]nc1-c1ccc(OCCCO)cc1 [Compound 195] | < 100 nM | < 100 nM
23 | CNCCN(C)Cc1cn(C2CCCCC2)nc1-c1ccc(OC(C)C)cc1 [Compound 256] | 101 to 1000 nM | 101 to 1000 nM
24 | CNCCN(C)Cc1cn(C2CCOC2)nc1-c1ccc(OC(C)C)cc1 (centres unmarked) [Compound 215] | 101 to 1000 nM | < 100 nM
25 | CNCCN(C)Cc1cnn(CC(=O)OC)c1-c1ccc(OC(C)C)cc1 [Compound 249] | 101 to 1000 nM | 101 to 1000 nM
26 | CNCCN(C)Cc1c[nH]nc1-c1ccccc1OC [Compound 23] | 101 to 1000 nM | 101 to 1000 nM

Row | SMILES | IC50 (Full-length human PRMT6) | IC50 [1]
27 | CNCCN(C)Cc1c[nH]nc1-c1ccc(C)cc1C [Compound 29] | < 100 nM | 101 to 1000 nM
28 | CNCCN(C)Cc1c[nH]nc1-c1ccc(OCCCOC)cc1 [Compound 209] | < 100 nM | < 100 nM
29 | CN(CCN)Cc1n[nH]cc1-c1ccc(Oc2ccccc2)cc1 [Compound 203] | < 100 nM | < 100 nM
30 | CNCCN(C)Cc1cnn(C)c1-c1ccc(Oc2ccccc2)cc1 [Compound 208] | < 100 nM | < 100 nM
31 | CNCCN(C)Cc1cn(Cc2ccccn2)nc1-c1ccc(OC(C)C)cc1 [Compound 247] | 101 to 1000 nM | 101 to 1000 nM
32 | CN(CCN)Cc1c[nH]nc1-c1ccc(Oc2cccc(F)c2)cc1 [Compound 205] | < 100 nM | < 100 nM
33 | CCN(C)C(=O)c1cccc(-c2n[nH]cc2CN(C)CCN)c1 [Compound 198] | 101 to 1000 nM | 1010 to 3000 nM
34 | CCC(=O)N1CCN(c2ccc(-c3n[nH]cc3CN(C)CCN)cc2)CC1 [Compound 189] | < 100 nM | 101 to 1000 nM
35 | CC(C)CN1C(=O)COc2ccc(-c3n[nH]cc3CN(C)CCN)cc21 [Compound 191] | 101 to 1000 nM | 101 to 1000 nM
36 | C=CCn1ncc(CN(C)CCNC)c1-c1ccc(OC(C)C)cc1 [Compound 219] | < 100 nM | < 100 nM
37 | CNCCN(C)Cc1cnn(CCCC(O)CO)c1-c1ccc(F)cc1 (centres unmarked) [Compound 31] | 101 to 1000 nM | 101 to 1000 nM
38 | CNCCN(C)Cc1cnn(C2CC2)c1-c1ccc(F)cc1 [Compound 14] | < 100 nM | 101 to 1000 nM
39 | CNCCN(C)Cc1cnn(C2CCOC2)c1-c1ccc(OC(C)C)cc1 (centres unmarked) [Compound 216] | < 100 nM | < 100 nM
40 | CCn1cc(CN(C)CCNC)c(-c2ccc(OC(C)C)cc2)n1 [Compound 213] | < 100 nM | < 100 nM
41 | CN(CCN)Cc1c[nH]nc1-c1ccc(Oc2ccccc2)c(C(=O)N(C)C)c1 [Compound 226] | < 100 nM | < 100 nM
42 | C=C(C)C(=O)Nc1cccc(-c2[nH]ncc2CN(C)CCNC)c1 [Compound 257] | 101 to 1000 nM | 101 to 1000 nM
43 | CNCCN(C)Cc1c[nH]nc1-c1cccc(O)c1 [Compound 26] | < 100 nM | 101 to 1000 nM
44 | CN(CCN)Cc1c[nH]nc1-c1ccc2c(c1)OCC(=O)N2C [Compound 192] | < 100 nM | 101 to 1000 nM
45 | CN(CCN)Cc1c(-c2ccc(C#N)cc2)ncn1C [Compound 222] | 1010 to 3000 nM | 1010 to 3000 nM
46 | CNCCN(C)Cc1c[nH]nc1-c1ccc(OCCCOC)c(Cl)c1 [Compound 228] | < 100 nM | < 100 nM
47 | CNCCN(C)Cc1c[nH]nc1-c1ccc(N)cc1 [Compound 33] | < 100 nM | 101 to 1000 nM
48 | CN(CCN1CCC1)Cc1c[nH]nc1-c1ccc(C#N)cc1 [Compound 185] | 101 to 1000 nM | 1010 to 3000 nM
49 | CCCc1ccc(-c2n[nH]cc2CN(C)CCNC)cc1 [Compound 20] | < 100 nM | < 100 nM
50 | CN(CCN)Cc1c[nH]nc1-c1ccc2c(c1)N(C)C(=O)CO2 [Compound 196] | < 100 nM | 101 to 1000 nM
51 | C=CCn1cc(CN(C)CCNC)c(-c2ccc(OC(C)C)cc2)n1 [Compound 218] | 101 to 1000 nM | < 100 nM
52 | CNCCN(C)Cc1c[nH]nc1-c1ccccc1OC(F)(F)F [Compound 40] | 101 to 1000 nM | 101 to 1000 nM
